The text below walks through data of PubChem BioAssay (NCI).

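Grown in 96-well plates, cells were treated for 48 hours with each compound at five concentrations. Insufficient inhibition: endpoint recorded as highest concentration tested. Here, GI50 denotes the concentration required for 50% inhibition of growth. TGI denotes the concentration required for complete inhibition of growth.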

Assay in all cases: NCI-60 cell line screen, 48 h
Experiment [1] relates to COLO 205 colon.
In experiment [2] the test system is EKVX NSCLC.
Experiment [3] relates to HT29 colon.
The subject of experiment [4] is KM12 colon.
The test system of experiment [5] is M14 melanoma.
Experiment [6] has as its system MOLT-4 leukemia.
Experiment [7] deals with OVCAR-3 ovarian.
Experiment [8] deals with OVCAR-5 ovarian.
Experiment [9] relates to RXF 393 renal.

With `CCOC(=O)n1cc(C2=C(c3ccc(OC)c(OC)c3)COC2=O)c2ccccc21`, the GI50 in [1] was 0.0522 µM; in [2], 0.0938 µM; in experiment [3], 0.0364 µM; in [4], 0.0441 µM; in experiment [5], 0.0348 µM; in experiment [6], 0.0581 µM. Moreover, the GI50 in experiment [7] was 0.0332 µM; in [8], 0.199 µM; in [9] it was 0.0252 µM. The TGI in experiment [1] is 0.94 µM; in experiment [2] it was greater than 100 µM; in [3], greater than 100 µM; in [4], 14.1 µM; in experiment [5], greater than 100 µM; in experiment [6] it was greater than 100 µM. The values for the TGI in [7], in [8] and in experiment [9] were 0.114 µM, greater than 100 µM and greater than 100 µM, respectively.

Regarding `CCCCCCCCCCCCNC(=S)OC`, the TGI came to 36.6 µM in [2]; 32.8 µM in experiment [3]; 29.6 µM in experiment [4]; 32.1 µM in [5]; 9.43 µM in experiment [6]; 30.9 µM in experiment [8]. In [9], this molecule returned a TGI of 25.7 µM.

As for `O=c1c2cccnc2ncn1CCN1CCCCC1`, the TGI in experiment [1], in experiment [2], in experiment [3], in experiment [4], in experiment [5] and in experiment [6] was greater than 100 µM throughout. Besides, the TGI in experiment [7], in experiment [8] and in [9] was greater than 100 µM in each case.

As for `COc1cc2c(cc1O)[C@H](C)C(c1ccc(OC)c(OC)c1)O2` (stereo partly drawn), the TGI is 49.2 µM in experiment [1]; greater than 100 µM in [2]; 34.5 µM in experiment [3]; greater than 100 µM in experiment [4]; 15.9 µM in experiment [5]; 23.9 µM in experiment [6]. Moreover, the TGI was 16.6 µM in experiment [7], greater than 100 µM in experiment [8] and 30.3 µM in [9].

For `N#CCCC[Si]12OCCN(CCO1)CCO2`, the TGI in experiment [1], in experiment [2], in experiment [3], in experiment [4], in experiment [6] and in experiment [7] was greater than 100 µM in each case. For the same molecule, the TGI in experiment [8] and in experiment [9] was greater than 100 µM each time.

As for `CN(C)CC1CCC/C1=N/OC(=O)c1ccccc1` (stereo not drawn), the TGI in experiment [1], in [3], in experiment [5], in [6], in experiment [7] and in experiment [8] was greater than 100 µM in each case. For the same molecule, the TGI in experiment [9] was greater than 100 µM.

On to `O=S1C(=c2ccc(=C3Sc4ccccc4S3)cc2)Sc2ccccc21` (stereo not drawn), for which the TGI in [1] is greater than 100 µM; in [2], 34.2 µM; in experiment [3] it was 49.2 µM; in [4] it was 31.4 µM; in [5], 29 µM; in experiment [6], greater than 100 µM. The TGI is greater than 100 µM in [7], 32.4 µM in experiment [8] and greater than 57.7 µM in [9].

For `S=P1(Oc2ccccc2)NNP2(=NP(N3CC3)(N3CC3)=NP(N3CC3)(N3CC3)=N2)NN1` (stereo not drawn), the TGI in experiment [1], in [2], in experiment [3], in experiment [4], in experiment [6] and in [7] was greater than 100 µM throughout. The molecule also had a TGI in [8] greater than 100 µM.

As to `CCOC(=O)/C(=C/c1ccc(OC)cc1)N(CC)CC`, the TGI in experiment [1], in experiment [2], in experiment [3], in experiment [4], in [5] and in [6] was greater than 100 µM throughout. Moreover, the TGI in experiment [7] and in experiment [8] was greater than 100 µM each time.

As for `O=C(/C=C/c1c(O)ccc2ccccc12)c1ccc([N+](=O)[O-])cc1`, the TGI in [1] is greater than 72.5 µM; in [2] it was greater than 100 µM; in [3], greater than 100 µM; in [4], greater than 100 µM; in experiment [5], 41.6 µM; in experiment [6], greater than 90.4 µM. For the same molecule, the results for the TGI in experiment [7], in experiment [8] and in [9] were 39.8 µM, greater than 100 µM and 61.8 µM, respectively.

In the case of `O=C1C(C(Nc2ccccc2)c2ccccc2)=C([O-])c2ccccc21.O=C1C(C(Nc2ccccc2)c2ccccc2)=C([O-])c2ccccc21.[Cu+2]` (stereo not drawn), the GI50 in experiment [1] was 32.1 µM; in [3] it was 33.1 µM; in experiment [4], 32.2 µM; in [5], 18.5 µM; in [6], 25.5 µM. Moreover, the TGI in [1], in experiment [3], in [4], in [5] and in experiment [6] was greater than 100 µM in each case.

On to `CC(=O)OCCOCNC(=S)N/N=C/c1ccc([N+](=O)[O-])o1`, for which the TGI was 42.9 µM in experiment [1]; greater than 100 µM in experiment [2]; greater than 100 µM in experiment [3]; greater than 100 µM in [4]; greater than 100 µM in experiment [5]; greater than 100 µM in [7]. Further, the TGI in experiment [8] and in experiment [9] was greater than 100 µM throughout.

Regarding `COCCOCOC(CCCCO)c1cc(C)c(O[Si](C)(C)C(C)(C)C)c(C)c1` (stereo not drawn), the TGI in experiment [1] was determined as 22.3 µM; in experiment [2], 22.6 µM; in [4] it was 18.6 µM; in experiment [5], 23.1 µM; in experiment [6], 13.2 µM; in [7] it was 19.2 µM. In addition, the TGI in experiment [8] amounted to 26.7 µM; in experiment [9], 10.5 µM.

As for `CNC(=O)NCCCC(NC(C)=O)C(=O)NCc1ccccc1` (stereo not drawn), the TGI in [1], in [2], in [3], in [4], in experiment [5] and in experiment [6] was greater than 100 µM each time. The TGI in experiment [7], in [8] and in [9] was greater than 100 µM in each case.

With `Cc1ccc(S(=O)(=O)N2CCC2c2ccccc2)cc1` (stereo not drawn), the TGI in [1], in experiment [2], in experiment [3], in experiment [4], in experiment [5] and in [6] was greater than 100 µM in each case. The TGI in experiment [7] and in experiment [9] was greater than 100 µM in each case.

On to `CC1(C)CC(c2c[nH]c3ccccc23)=CC2=Nc3ccccc3C21O` (stereo not drawn), for which the TGI in [1], in experiment [2], in [3], in [4], in experiment [5] and in [6] was greater than 100 µM in each case. In addition, the TGI in experiment [7], in experiment [8] and in experiment [9] was greater than 100 µM each time.

In the case of `N#CC(C(=O)CCC(=O)Nc1ccc(Cl)c(Cl)c1)c1ccccc1` (stereo not drawn), the TGI in [2], in experiment [3], in experiment [4], in experiment [5], in [6] and in experiment [7] was greater than 100 µM throughout. For the same molecule, the TGI in experiment [8] and in [9] was greater than 100 µM in each case.

For `CCCC/C=C/C=C/C=C/CCCCCCCC(=O)OCC(COC(=O)CCCCCCC/C=C/C1C=CC(CCCC)C(C(=O)O)C1C(=O)O)OC(=O)CCCCCCC/C=C/C=C/C=C/CCCC` (stereo not drawn) (tested in a mixture with another compound), the TGI in experiment [1] was 29.3 µM; in experiment [2], 43.4 µM; in experiment [3], 35.3 µM; in experiment [4] it was 34.6 µM; in experiment [5], 29.7 µM; in experiment [6], 47.2 µM. Besides, the values for the TGI in experiment [7] and in experiment [8] were 38.3 µM and 43.1 µM, respectively.

With `CN(C)C(=S)/N=c1\ssc(=S)n1C1CCCCC1`, the TGI in [2] was greater than 100 µM; in [3], greater than 100 µM; in experiment [4], greater than 100 µM; in [5], 36.3 µM; in experiment [6], 52.3 µM; in experiment [8], greater than 100 µM. In addition, in experiment [9], the TGI is greater than 100 µM.

As for `O=C(O)CSc1n[nH]c(-c2ccccc2O)n1`, the TGI in experiment [2], in experiment [3], in experiment [5], in experiment [6], in [7] and in experiment [8] was greater than 100 µM each time. In experiment [9], the TGI is greater than 100 µM.

Regarding `CCOC(=O)C1Sc2ccccc2N=C1C` (stereo not drawn), the TGI in experiment [1], in [2], in [3], in [4], in experiment [6] and in [7] was greater than 100 µM throughout. Further, the TGI in [8] and in [9] was greater than 100 µM throughout.

With `Cn1cc(-c2cc3c(N4CCN(c5ncc([C@@](C)(N)c6ccc(F)cc6)cn5)CC4)ncnn3c2)cn1`, the GI50 in experiment [2] is 4.14 µM; in experiment [3] it was 3.35 µM; in experiment [4], 3.49 µM; in experiment [5], 4.42 µM; in [6], 2.52 µM; in experiment [9], 2.66 µM. Also, the TGI in experiment [2], in experiment [3], in experiment [4], in [5], in [6] and in [9] was greater than 100 µM in each case.
